Results taken from patent publication US20200299251A1, “FURAN SKELETON-CONTAINING IMINOGUANIDINE DERIVATIVE AS WELL AS PREPARATION AND APPLICATION THEREOF” (SUN YAT-SEN UNIVERSITY, priority 2017, published 2020).

Tests used:
[1] = Equilibrium constants and enthalpy changes of the process of absorbing and releasing carbon dioxide; format: physicochemical
[2] = Release of H2O and CO2 by heating in watch glass under normal pressure (weight loss); format: physicochemical
Method: The weight-lost solid was dissolved into water, carbon dioxide gas was introduced, and the above substances were stirred for lh to separate out a yellow solid.
The weight was 2.6 g, and weight loss was 29.7%. The weight-lost solid was dissolved into water, carbon dioxide gas was introduced, and the above substances were stirred for 1 h to separate out a yellow solid.
The weight was 2.46 g, and weight loss was 33.7%. The weight-lost solid was dissolved into water, carbon dioxide gas was introduced, and the above substances were stirred for lh to separate out a yellow solid.
The weight was 2.45 g, and weight loss was 33.7%. The weight-lost solid was dissolved into water, carbon dioxide gas was introduced, and the above substances were stirred for lh to separate out a yellow solid.

[3] = Water solubility of FuBIG salts, UV absorbance of saturated aqueous solutions; settings: saturated aqueous solution, UV absorbance at 368 nm
Method: The absorbance of the above concentration gradients was determined under this wavelength, and standard curves were plotted to obtain a curve equation Y=14705×−0.0825 (as shown in FIG. 13B).
It was known that the pKa of HCO3^− was 10.32.

[4] = format: physicochemical
[5] = Differential scanning calorimetric experiment; format: physicochemical; settings: 30-200° C., 10 K/min
[6] = Thermogravimetry infrared experiment; format: physicochemical; settings: 10 K/min
Method: The temperature range was 25-800° C., and the heating rate was 10 K/min. […] It can be seen from FIG. 9B that this molecule can release water molecules and carbon dioxide molecules under the heating condition, and water molecules and carbon dioxide molecules are nearly released at the same time.

[7] = Determination of pKa by pH titration with NaOH; format: physicochemical
Method: 0.077 g of FUBIG hydrochloride and 0.585 g of NaCl were weighed, the volume was metered to 50 mL with ultrapure water, and 26 μL of HCl (36%) was dropwise added. The mixed solution was stirred at 25° C. until the temperature was stabilized. The pH meter was calibrated respectively using potassium hydrogen phthalate (pH 4.00) buffer, mixed phosphate buffer (pH 6.86), sodium tetraborate buffer (pH 9.18), and then titration was conducted with 0.1M NaOH solution. After each titration, the system was stabilized after waiting for 7min, and then the next titration was conducted. The volume and pH value of each titration were recorded.
Plot was made according to the ph-V (mL). […] The same method was used to obtain: 15° C., pKa1=7.79, pKa2=8.90; at 20° C., pKa1=7.68, pKa2=8.82; at 30° C., pKa1=7.49, pKa2=8.66; at 35° C., pKa1=7.31, pKa2=8.59 (as shown in Table 3).

## N=C(N)NN=Cc1ccc(C=NNC(=N)N)o1.O.O.O.O.O=C(O)O
[1]; FuBIGH2(CO3)(H2O)4 precipitate
  Enthalpy change ΔH: -24.276 kcal/mol
  Equilibrium constant K: 1.63 × 10^7
[2]; heated for 5 h at 100° C.
  weight loss: 33.6%
[2]; heated for 12 h at 70° C.
  weight loss: 29.7%
[2]; heated for 12 h at 120° C.
  weight loss: 33.7%
[2]; heated for 12 h at 180° C.
  weight loss: 33.7%
[3]
  Solubility(FuBIG cation concentration, M): 9.3 (4)×10^−3 M
[4]; pH meter
  pH of saturated aqueous solution: 8.48
[4]; saturated aqueous solution, pH 8.48
  concentration of carbonate ion [CO3^2−] in the saturated solution: 1.3(3)×10^−4 M
[5]
  temperature range of release of carbon dioxide and water (DSC): 97.89-109.13 °C
[6]; 25-800° C.
  temperature at which the weight loss rate is the maximum: 100 °C
  temperature at which water and carbon dioxide molecules are completely lost: 165 °C
[6]; at 165° C.
  weight loss: 36.31%

## Cl.N=C(N)NN=Cc1ccc(C=NNC(=N)N)o1
[3]
  Solubility(FuBIG cation concentration, M): 0.74 (6) M

## N=C(N)NN=Cc1ccc(C=NNC(=N)N)o1.O.O.O=[N+]([O-])O.O=[N+]([O-])O
[3]
  Solubility(FuBIG cation concentration, M): 3.3 (2)×10^−2 M

## N=C(N)NN=Cc1ccc(C=NNC(=N)N)o1.O=S(O)O
[3]
  Solubility(FuBIG cation concentration, M): 1.4 (2)×10^−3 M

## N=C(N)N/N=C/c1ccc(/C=N/NC(=N)N)o1 [FuBIG]
[7]; 15° C.
  pKa1: 7.79
  pKa2: 8.90
[7]; 20° C.
  pKa1: 7.68
  pKa2: 8.82
[7]; 25° C.
  pKa1: 7.57
  pKa2: 8.71
[7]; 30° C.
  pKa1: 7.49
  pKa2: 8.66
[7]; 35° C.
  pKa1: 7.31
  pKa2: 8.59
[1]; FuBIG dissolution
  Enthalpy change ΔH: 11.76 kcal/mol
  Equilibrium constant K: 4.03 × 10^−1
[1]; FuBIG protonation
  Enthalpy change ΔH: 11.01 kcal/mol
  Equilibrium constant K: 1.91 × 10^−12
[1]; Total CO2 absorbing process
  Enthalpy change ΔH: -27.75 kcal/mol
  Equilibrium constant K: 5.97 × 10^4
[1]; Total CO2 releasing process
  Enthalpy change ΔH: 50.026 kcal/mol
other
  melting point: 244 to 246 °C
